In US8193175B2, “Ruthenium complexes for treating cancers” (Universite de Strasbourg, priority 2004, dated 2012):

Columns and labels:
[1] = tested on: 2008/CMV and 2008/ATP7B cells; assay: MTT test on 2008/CMV and 2008/ATP7B cells; type: cell-based; conditions: 48 hrs
Protocol: (§1) FIG. 6: The 2008/CMV and 2008/ATP7B cells (contributed by Dr. Howell) were cultivated in plates with 96 wells in DMEM medium with 10% calf serum. At 30% confluence, the cells were treated for 48 hrs with cisplatinum or the various compounds derived from ruthenium in the concentrations indicated (1, 5, 15, 50 μM). The quantity of cells present in the wells was evaluated by an MTT (MTT, Sigma) test. The results obtained were related to the values of the control condition (100% viability). The graphs show an average of 8 points with the typical spacings over one experiment representative of 3 carried out. The thick black line indicates the IC50 for each graph.
One of these mechanisms is the overexpression of the copper export pump (ATP7B) which expels cisplatinum from the cell. It has been shown that this molecule is overexpressed in human tumours and that cell lines which overexpress this molecule are more resistant to cisplatinum and carboplatinum than control lines.
Two cell lines derived from 2008 cells (Katano, Safaei et al. 2003) were studied. One overexpresses the ATP7B pump, and the other only contains the control vector. The cytostatic activity of the cisplatinum and the CDR was tested in these two lines using the MTT test.

HCT116 cells = assay: Western blot of p53, p21 and phospho-histone H3 in HCT116 cells; type: cell-based, human; conditions: 10 μM
Protocol: FIG. 5: Detection of p53, p21 and of the phosphorylation of histone H3 in the HCT116 cells treated with CDR. The HCT116 cells were treated with the various compounds (10 μM) and for the periods of time indicated (24 hrs or 6 hrs). The proteins were extracted with a lysis buffer and were separated on 10% SDS-Page gel. After being transferred onto nitrocellulose, the p53, p21 proteins and histone H3 were detected by Western blot using anti-p53 (pAb1801), anti-p21 (1/200, Oncogene) antibody and anti-phospho serine 10 of histone H3 (1/2000, Santacruz).
(§2) For the purpose of determining the molecular mechanisms used by the ruthenium derivatives and comparing them with those induced by cisplatinum, the expression of p53, p73 p21 and bax in the A172 and HCT116 lines was analysed.

A172 cells [2] = assay: MTT test on A172 cells, combination with NCS or Taxol; type: cell-based, human; conditions: concentration bringing about 10% of the maximum effect; 48 hrs
Protocol: FIG. 7: The A172 cells were cultivated in plates with 96 wells in DMEM medium with 10% calf serum. At 30% confluence, the cells were treated for 48 hrs with cisplatinum, CDR6, NCS (Neocarzinostatin), Taxol or a combination of these drugs in the concentrations indicated. The quantity of cells present in the wells was evaluated by an MTT (MTT, Sigma) test, the reaction products of which are quantified with an Elisa plate reader (Metertech, USA) (490-650 nm). […] The graphs show an average of 8 points with the typical spacings over one experiment representative of 4 carried out. The thick black line indicates the IC50 for each graph.
The mechanisms induced by various anticancer drugs are different according to the mode of action of these drugs. […] NCS induces DNA double strand breaks, similar to those of gamma rays (Smith and Nicolaou 1996). Taxol disrupts the mitotic spindles (Oberlies and Kroll 2004).
A comparison was made using two doses of NCS and two doses of Taxol. The one enables one to expect the IC50, the other leads to a reduction by 10% of the cell viability after 48 hrs treatment. These two concentrations were combined with a concentration of ruthenium derivative or cisplatinum bringing about 10% of the maximum effect.

A172 cells [3] = assay: Western blot of p53, p73, p21 and Bax in A172 cells; type: cell-based, human
Protocol: FIG. 3: Detection of p53 and p73 in A172 cells treated with CDR. The A172 cells were treated with the concentrations indicated (2, 5 or 10 μM) with the various compounds and for the periods of time indicated (24 hrs or 6 hrs). The proteins were extracted with a lysis buffer and were separated on 10% SDS-Page gel. After being transferred onto nitrocellulose, the p53 and p73 proteins were detected by Western blot using anti-p53 (pAb1801) and anti-p73 (1/200, Ab2, Oncogene) antibody.
FIG. 4: Detection of p21 and Bax in A172 cells treated with CDR. The A172 cells were treated with the various compounds (10 μM) for 24 hrs. The proteins were extracted with a lysis buffer and were separated on 10% SDS-Page gel. After being transferred onto nitrocellulose, the p21 and Bax proteins were detected by Western blot using anti-p21 (1/200, Oncogene) and anti-Bax (1/2000, Santacruz) antibody.
as §2

A172 glioblastoma cells = assay: Nucleus morphology and caspase 3 activation in A172 cells; type: cell-based, human
Source text: FIG. 2: A—The A172 cells were cultivated on glass slides. […] The cells were then fixed in 4% paraformaldehyde, permeabilised with 0.1% NP40 and marked with Hoechst dye (blue) and the anti-p20 antibody (active fragment of caspase 3, in red). The cells were then observed under the fluorescence microscope. B—Graphic representation of the number of cells with an apoptotic, fragmented or condensed nucleus. The bars are an average of two slides from one experiment representative of 3 carried out. C—In parallel, proteic extracts were prepared from cells treated with various drugs (cisplatinum 15 μM; CDR225 μM; CDR615 μM; CDR915 μM) and following denaturation the extracts were deposited on a !0% SDS-Page gel. After migration, the proteins were transferred onto nitrocellulose (Biorad, 0.2 μm) and the p20 fragment of the caspase 3 was detected by Western blot with an anti-p20 antibody (1/1000, R&D System).
(§3) The first step towards characterising the anticancerous effects of the compounds derived from ruthenium consists of testing their activity on tumoral lines kept in culture and comparing these effects on lines which have different characteristics as regards resistance to the anticancer treatments. Two lines of human glioblastomas (A172, HS683) and two lines of neuroblastomas (N2A and SH5Y) were used in order to test the cytostatic effects of the compounds according to the invention. Cisplatinum was chosen as the cytotoxic comparison agent. In a first approach, an MTT test was used to measure the activity of a mitochondrial enzyme, and this gives an estimate of the number of cells. Then, the cytotoxic effects of the compounds according to the invention were characterised in greater detail by analysing the morphology of the nucleus and the activation of caspase 3—two markers of cell apoptosis.

[4] = tested on: A172, HS683, N2A, and SH5Y; assay: MTT test on glioblastoma and neuroblastoma lines; type: cell-based, human; conditions: 48 hrs treatment; compared with cisplatinum
Protocol: as §1, with “FIG. 1:” for “FIG. 6:”, “The A172” for “The 2008/CMV and 2008/ATP7B”, “cells” for “cells (contributed by Dr. Howell)”, “cultivated on” for “cultivated in”, “Sigma) test of which the products of the reaction are quantified with an Elisa plate reader (Metertech, USA) (490-650 nm).” for “Sigma) test.”, “of 4” for “of 3”
TABLE 2: a summary of the results obtained on various cell lines and primary glial cultures. The experiments were carried out under the same conditions as those described for the A172 cells. Each IC50 is an indicative value obtained over 4 independent experiments.
as §3

## CN(C)Cc1cccc[c]1[Ru+].CP(C)c1ccccc1.F[P-](F)(F)(F)(F)F.c1ccccc1 [Compound 6, [Ru (η^6-C6H6)-2-(CH2NMe2)—C6H4—(PMe2Ph)]PF6]
[1]
  sensitivity of the line expressing ATP7B relative to the control line (MTT): equivalent to that of the control line
HCT116 cells
  increase in expression of p21 and inhibition of phosphorylation of histone H3: identical for CDR 6 and cisplatinum
HCT116 cells; 6 hrs to 24 hrs
  induction of p53: induction of p53
A172 cells [2]
  effectiveness of co-treatment with NCS or Taxol: significantly more effective in relation to a co-treatment with cisplatinum
A172 cells [3]; 10 μM, 24 hours treatment
  expression of p21 and Bax: induces the expression of p21 and Bax
A172 cells [3]; 6 hrs treatment
  p53 proteic levels: induce p53
A172 cells [3]; 24 hrs treatment
  p53 proteic levels: no effect
A172 glioblastoma cells; 48 hrs treatment
  nuclear condensation and fragmentation: induce nuclear condensation and fragmentation characteristic of apoptosis
A172 glioblastoma cells; cisplatinum 15 μM, CDR6 15 μM, CDR9 15 μM
  proteic levels of the active fragment of caspase 3 (Western blot): increasing the proteic levels of the active fragment of caspase 3
[4]
  reduction of the number of tumoral cells (MTT): at a concentration similar to or lower than that of cisplatinum
